Design: species or system female CD1 mice
Conditions: mouse, in vivo
Experimental: In accordance with the procedure outlined in Canc. Res. 47: 3707-3711, female CD1 mice (obtained from Charles River Laboratories) were inoculated intraperitoneally with 10^6 S 180 cells in 100 microliters of phosphate buffered saline (PBS). Controls received PBS only. Both tumor and control mice were divided into three groups of ten mice per group. Rosin and technical grade abietic acid were each dissolved in ethanol at a concentration of 200 mg/ml which was diluted with 10% newborn calf serum in PBS to a ratio of 1:20 to form respective suspensions. Untreated groups (both tumor and control mice) were inoculated intraperitoneally with 1 ml of vehicle alone while […] and the technical grade abietic acid treated groups (both tumor and control) were intraperitoneally inoculated with 1 ml (10 mg) of the technical grade abietic acid suspension, the doses being administered immediately, and thereafter on the third, sixth and ninth days. Data from animals which expired within two hours of any inoculation (at zero, three, six and nine days) were discarded. […]

Substance: rosin
- adipose tissue deposition: increased deposition of adipose tissue
